The values below come from patent US20230089267A1, “Compositions and Methods For Reducing Immune Intolerance and Treating Autoimmune Disorders” (Lapix Therapeutics, Inc., priority 2021, published 2023).

For data set [1], the system named is FoxP3+/CD4+ T-cells (spleen). Kind of data set: Pharmacodynamics of a single ascending dose in mice, splenic T-cell phenotyping. To be noted: for percent of FoxP3+/CD4+ T-cells, mean: single dose, spleen five days after dose. The class given is in vivo. The method, then: All animal studies were conducted under IACUC number B2020-91 and in compliance with Tufts University/Tufts Medical Center & Human Nutrition Research Center on Aging. Animals were housed 4 per cage and had access to food and water ad libitum. Compound 2 was formulated with 10% DMSO in PBS buffer.
This study was designed to evaluate the PD effects of a single dose of Compound 2 in mice. Animals were administered a single oral gavage, as per their group assignment. Five days after the oral dose, animals were sacrificed, and their spleens were collected for T-cell phenotyping. FIG. 2A is a schematic diagram of the study design.
For ex vivo analysis, spleens were collected for splenocyte analysis, and prepared into a single-cell suspension for cellular phenotyping by flow cytometry. Cells were stained and gated for CD4. Percent FoxP3+/CD4+ T-cells and percent FoxP3+/NRP1+ were evaluated using flow cytometry. For dose-response analysis, dose versus response was fitted to 4- and 5-parameters, log-logistic models using the “dre” package in “R”. Both EC50 and EC90 were obtained by model fitting.

Data set [2] concerns MOG35-55-induced murine EAE model. Kind of data set: MOG35-55-induced murine EAE model versus standards of care (Example 4). The class given is in vivo, mice. The method, then:
Experimental autoimmune (allergic) encephalomyelitis (EAE) is considered the best non-clinical model of multiple sclerosis (MS). EAE is characterized by immune responses against CNS tissue and can be induced in animals by immunizing them against proteins of the CNS. In the active EAE model, mice are immunized with MOG35-55 peptide emulsified in Complete Freund's Adjuvant (CFA) by subcutaneous injection at the tail base (0.1 mL of emulsion/mouse) under anesthesia. On the day of injection (Day 0) and 2 days later, mice receive an intraperitoneal injection of Pertussis Toxin (PT) in PBS at 600 ng/mouse/dose (0.1 mL).
Symptoms typically develop in mice 9-14 days after immunization (Day 0). Daily observation and scoring of mice start on Day 9 and continue until the end of the study. Table 5 details the expected clinical symptoms and the scoring criteria used in this study.
To evaluate the therapeutic effects of Compound 2, treatment was initiated after the first clinical symptoms were observed. […] Mice in all groups were monitored and scored daily for clinical symptoms.
At the end of the study, spleens were collected from a representative sample of mice from each group for splenocyte analysis. A single-cell suspension was prepared for cellular phenotyping by flow cytometry. Cells were stained and gated for CD4+ T-cells. Percent FoxP3+/CD4+ T-cells were evaluated by flow cytometry.

A further data set deals with NMO mouse model. Kind of data set: AQP4-p201-p220-induced neuromyelitis optica mouse model, fundoscopy. The class given is in vivo, mice. To be noted: number of eyes since randomization, 3 μg SC daily, 20 eyes. The protocol:
NMO is a CNS autoimmune inflammatory demyelinating disease that causes optico-spinal disorder leading to paralysis and vision loss. NMO mouse model was established by using AQP4-p201-p220 peptide (from Genemed Synthesis Inc.). Briefly, C57BL/6 mice (n=30) were immunized on day 0 with 100 micrograms of the AQP4-p201-p220 peptide emulsified in CFA. Mice were injected subcutaneously at the tail base under anesthesia. On the day of injection (Day 0) and two days later, mice received intraperitoneal injection of pertussis toxin (PTx) in PBS at 200 ng/mouse/dose (0.1 ml).
Prior to immunizing the mice on day 0, both eyes of each of the mice were imaged by fundoscopy. Fundoscopy was employed to study (a) optic disc inflammation, and (b) retinal damage (exudates as evidence of inflammation). Mice were monitored for disease onset daily after one week of immunization (day 7) for clinical symptoms, as per the scoring system developed by Ramadan et al., Brain 2016. Mice with a score of 1.0 or any […] symptoms were immediately randomized into either group A or group B treatment regimens to receive up to 14 days of treatment. Group A (n=10) received Compound 2 3 μg SC daily, and Group B (n=8) served as a control and was treated with a placebo.
Fundoscopy was conducted on day 6 post-immunization and was later performed approximately once every four days, i.e., on days 9, 13, 16, 22, and 26. Each eye was scored for inflammation in the optic disc and retinal damage evident by the appearance of ‘exudates’ (blotchiness) in the fundus image. Eye samples were collected during the onset of disease and post-randomization after at least 9-12 days of treatment and on day 14 (end of study) to assess the histology of both the optic nerve and the retina.

Data set [3] is described as follows: Pilot stability study of oral solution with HPBCD. The class given is physicochemical. The protocol:
Oral dosing solutions of different concentrations of Compound 2 were compounded ranging from 0.02 mg/ml to 3 mg/ml using a 1:80 ratio of Compound 2:HPBCD. Briefly, the compounding was performed by weighing and dissolving HPBCD in sterile HPLC grade water. Then, Compound 2 was weighed and added to the HPBCD solution in an appropriate container. To enhance dissolution, sonication and magnetic stirring were alternated to obtain a clear solution. Then, the solution was dispensed into PET amber bottles, appropriately labeled and stored under refrigeration until dosing.
A pilot stability study was performed on a 0.7 mg/ml Compound 2 oral solution at three temperatures: −20° C., 4° C., and room temperature (RT).
Samples were also subjected to three freeze-thaw cycles (−20° C. to room temperature). Solutions were evaluated for clarity. […] The potency of these solutions was also determined using an LC/MS assay.

[4] abbreviates: four-parameter dose-response model, single dose per mouse.

Regarding `N[C@@H](CNC(=O)Cc1ccc(OCc2cccc3ccccc23)cc1)C(=O)O` [Compound 2, (S)-2-Amino-3-(2-(4-(naphthalen-1-ylmethoxy)phenyl)acetamido)propanoic acid], in data set [1] (setting [4]), the “ED50 for FoxP3+/CD4+ T-cells” value was 4.88 µg and the “ED90 for FoxP3+/CD4+ T-cells” value was 82.1 µg. The “increase of the number of FoxP3+/CD4+ T-cells (T-reg)” value in data set [1] (from the lowest dose to the highest dose group) is recorded as 150%. Also, the “percent of FoxP3+/CD4+ T-cells, mean” value in data set [1] (highest dose group) is given as 25.4%. Moreover, the “percent of FoxP3+/CD4+ T-cells, mean” value in data set [1] (lowest dose group) stood at 10.7%. Also, in data set [2] (10-μg oral dose following one or two injections of anti-alpha4 integrin), the “disease control after switching from anti-alpha4 integrin” value was “resulted in disease control after disease onset”. Further, the “control of MS symptoms after disease onset versus glatiramer acetate” value in data set [2] (all doses and regimens) is “more effective than glatiramer acetate”. Further, the “control of MS symptoms after disease onset versus anti-alpha4 integrin” value in data set [2] (daily 10-μg oral dose) was “as effective as a full regimen of anti-alpha4 integrin”. In addition, in data set [2] (doses of Table 6, treatment from clinical score 1), the “MS clinical score after disease onset” value is given as “reduced the MS clinical score after disease onset in a dose-dependent manner”. For the same molecule, in the data set on NMO mouse model, the “Cleared/Clearing eyes (recovery)” value turned out to be 4, the Maintained/No change was 14 and the Worsening conditions is listed as 0. The potency on storage result in data set [3] (0.7 mg/ml oral solution, −20° C., 4° C. and room temperature) is given as “Potency was maintained over a minimum period of three months at all storage conditions”. Besides, the “potency after storage and freeze-thaw cycles, LC/MS assay” value in data set [3] (3-month storage and several freeze-thaw cycles) is “Potency was maintained”. For the same molecule, the “clarity after three freeze-thaw cycles” value in data set [3] (oral solution, −20° C. to room temperature) was “No precipitation was observed, and all solutions maintained clarity”.
